Data taken from PMC3285450 (Journal of Medicinal Chemistry, 2010).

Key:
in vivo = conditions: male, CFW, mouse, po, 5 mg/kg
[1] = pharmacokinetic screening by oral cassette dosing in mice; conditions: blood pharmacokinetic profile, Figure S3
Human sEH = target: T1, Human sEH (Homo sapiens, UniProt P34913); conditions: for improved potency over compound 40: versus compound 40, reached the LOQ of the in vitro assay
T1 sequence (P34913 1-555): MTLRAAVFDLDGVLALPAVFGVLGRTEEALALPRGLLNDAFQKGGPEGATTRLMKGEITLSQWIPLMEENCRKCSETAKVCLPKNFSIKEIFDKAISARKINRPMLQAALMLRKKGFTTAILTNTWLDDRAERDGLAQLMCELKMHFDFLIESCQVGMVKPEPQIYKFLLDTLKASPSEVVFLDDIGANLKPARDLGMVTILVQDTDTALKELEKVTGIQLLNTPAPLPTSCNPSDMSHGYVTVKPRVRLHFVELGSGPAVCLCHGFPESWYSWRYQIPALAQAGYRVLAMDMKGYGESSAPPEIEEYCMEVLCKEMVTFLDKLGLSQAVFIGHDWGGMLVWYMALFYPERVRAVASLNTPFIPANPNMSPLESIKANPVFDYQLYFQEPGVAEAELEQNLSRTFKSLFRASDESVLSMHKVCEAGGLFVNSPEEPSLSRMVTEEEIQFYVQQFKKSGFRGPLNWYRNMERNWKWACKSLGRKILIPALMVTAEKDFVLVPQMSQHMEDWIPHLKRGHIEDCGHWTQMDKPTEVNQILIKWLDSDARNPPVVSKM

murine sEH = target: T2, murine sEH (Mus musculus, UniProt P34914); assay: fluorescent
T2 sequence (P34914 1-554): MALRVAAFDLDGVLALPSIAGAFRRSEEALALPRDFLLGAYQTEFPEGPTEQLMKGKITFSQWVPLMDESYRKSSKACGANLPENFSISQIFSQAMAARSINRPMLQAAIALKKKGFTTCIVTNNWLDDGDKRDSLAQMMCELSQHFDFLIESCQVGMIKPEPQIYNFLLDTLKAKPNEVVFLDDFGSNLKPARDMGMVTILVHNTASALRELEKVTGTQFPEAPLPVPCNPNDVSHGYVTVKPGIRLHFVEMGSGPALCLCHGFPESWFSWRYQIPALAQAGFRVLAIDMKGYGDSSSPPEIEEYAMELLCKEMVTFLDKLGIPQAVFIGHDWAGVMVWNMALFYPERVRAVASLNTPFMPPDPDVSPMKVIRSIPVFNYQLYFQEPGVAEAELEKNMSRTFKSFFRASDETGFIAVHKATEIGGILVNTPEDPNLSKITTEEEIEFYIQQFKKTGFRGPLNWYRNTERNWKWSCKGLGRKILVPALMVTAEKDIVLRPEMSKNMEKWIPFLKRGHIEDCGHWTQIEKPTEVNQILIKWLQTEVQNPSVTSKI

[2] = tested on: carrageenan induced inflammatory pain; assay type: in vivo, Male Sprague-Dawley rats; conditions: for reversal of carrageenan induced pain (mechanical withdrawal threshold): rats, intraplantar, 3 hr after carrageenan, sEHi 10 ng/paw, morphine 10,000 ng/paw, n=6
hydrolytic stability = assay type: physicochemical

Compound: O=C(O)CCCCCCCCCCCNC(=O)NC12CC3CC(CC(C3)C1)C2 [AUDA, 12-(3-adamantane-1-yl-ureido)dodecanoic acid, reference compound]
- AUC(0-t) (in vivo): 0.05 µM·h

Compound: CC(=O)N1CCC(NC(=O)NC23CC4CC(CC(C4)C2)C3)CC1 [APAU]
- AUC [1]: small
- halflife [1]: very short

Compound: CCC(=O)N1CCC(NC(=O)Nc2ccccc2)CC1 [Compound 7]
- drop in potency against the human enzyme versus cyclohexyl compound 4 (Human sEH; versus compound 4): 11 fold

Compound: CCC(=O)N1CCC(NC(=O)Nc2cccc(F)c2)CC1 [Compound 28]
- lower IC50 than para-fluorophenyl 24, human enzyme (Human sEH; versus compound 24): 2 fold
- lower IC50 than para-fluorophenyl 24, murine enzyme (murine sEH; versus compound 24): 5 fold

Compound: CN1CC[C@]23c4c5ccc(O)c4O[C@H]2[C@@H](O)C=C[C@H]3[C@H]1C5 [morphine, reference compound]
- reversal of carrageenan induced pain (mechanical withdrawal threshold) [2]: significantly reversed carrageenan induced pain

Compound: O=C(Nc1ccc(OC(F)(F)F)cc1)NC1CCN(C(=O)C2CC2)CC1 [Compound 52, 1-(1-(cyclopropanecarbonyl)piperidin-4-yl)-3-(4-(trifluoromethoxy)phenyl)urea]
- increase in potency compared to morphine, reducing hyperalgesia ([2]; mechanical withdrawal threshold, carrageenan model): 1000 fold
- reversal of carrageenan induced pain (mechanical withdrawal threshold) [2]: significantly reversed carrageenan induced pain
- increase in potency over adamantane analogue 2 (Human sEH; versus compound 2): 7 fold
- improved potency over compound 40 (Human sEH): approximately 9 fold
- AUC(0-t) (in vivo): 164 µM·h
- Cmax (in vivo): 8.9 µM
- Tmax (in vivo): 3.17 h
- half-life (in vivo): 19.7 h
- improvement from AUDA, exposure in murine blood and murine potency data (murine sEH; Figure S5, versus AUDA): 10^5

Compound: O=C(Nc1ccc(OC(F)(F)F)cc1)NC1CCN(C(=O)C(F)(F)F)CC1 [Compound 53]
- hydrolytic stability (hydrolytic stability): hydrolytic instability
- improved potency over compound 40 (Human sEH): approximately 9 fold
